# Where a name gives a salt, the structure may show the parent alone.
# Tested on: T1, 1N4R p-tau
# T1 construct: made in house; host or cells: E. coli (PIMAX system)
# Assay: p-tau aggregation modulator screen of 1280-compound library (ThS fluorescence net change over 16 h);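 as to ThS net change: 30 µM compound with 6 µM p-tau over 16 h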
# Assay type: biochemical
# Design: key to PTAI>3SD: *: PTAI>3SD
# Conditions: not given
row,SMILES,ThS net change
1,CNNCc1ccc(C(=O)NC(C)C)cc1 [Procarbazine hydrochloride],457
2,COc1cccc2c1C(=O)c1c(O)c3c(c(O)c1C2=O)C[C@@](O)(C(=O)CO)C[C@@H]3O[C@H]1C[C@H](N)[C@@H](O)[C@H](C)O1 [Epirubicin hydrochloride],315
3,CC(=O)O[C@H]1C[C@@H]2CC[C@@H]3[C@H](CC[C@@]4(C)[C@H]3C[C@H]([N+]3(C)CCCCC3)[C@@H]4OC(C)=O)[C@@]2(C)C[C@@H]1[N+]1(C)CCCCC1 [Pancuronium bromide],491
4,O=C([O-])[C@H]1/C(=C/CO)O[C@@H]2CC(=O)N21.[K+] [Clavulanate potassium salt],431

# Same assay, conditions: 1280-compound library screen; ThS fluorescence net change over 16 h
row,SMILES,ThS net change
1,CN(C)CCOC(=O)C(c1ccccc1)C1(O)CCCC1 (centres unmarked) [Cyclopentolate hydrochloride],412
2,C#CCN(C)Cc1ccccc1 [Pargyline hydrochloride],389
3,CCCOc1ccc(C(=O)OCCN(CC)CC)cc1N [Proparacaine hydrochloride],392
4,CC(C)NNC(=O)c1ccncc1.O=P(O)(O)O [Iproniazide phosphate],401
5,CCCCOC(=O)c1ccc(N)cc1 [Butamben],387
6,CCCNC(C)(C)COC(=O)c1ccccc1 [Meprylcaine hydrochloride],405
7,CCN(CCO)CCCC(C)Nc1ccnc2cc(Cl)ccc12 (centres unmarked) [Hydroxychloroquine sulfate],380
8,CC(c1cc2ccccc2s1)N(O)C(N)=O (centres unmarked) [Zileuton],410
9,CC(=O)NC[C@H]1CN(c2ccc(N3CCOCC3)c(F)c2)C(=O)O1 [Linezolid],405
10,COc1ccccc1N1CCN(CCCNc2cc(=O)n(C)c(=O)n2C)CC1 [Urapidil hydrochloride],388
11,CCCC(CCC)C(=O)O [Valproic acid],403
12,NC[C@H]1O[C@H](OC2[C@@H](N)C[C@@H](N)[C@H](O)[C@H]2O[C@@H]2O[C@H](CO)[C@@H](O)[C@H]2O)[C@H](N)[C@@H](O)[C@@H]1O.O=S(=O)(O)O (some centres unmarked) [Ribostamycin sulfate salt],379

# Same assay, conditions: 1280-compound library screen; […]
row,SMILES,ThS net change
1,CCOc1ccccc1O[C@@H](c1ccccc1)[C@H]1CNCCO1.CS(=O)(=O)O [Reboxetine mesylate],386
2,CCN[C@@H](C)Cc1cccc(C(F)(F)F)c1 [Dexfenfluramine hydrochloride],397

# Same assay, conditions: flag: p-tau aggregation inhibitor, ThS net change more than 3 SD from mean
row,SMILES,PTAI>3SD
1,Nc1ccc(/N=N/c2ccccc2)c(N)n1 [Phenazopyridine hydrochloride],*
2,O=C1c2c(O)cccc2Cc2cccc(O)c21 [Anthralin],*

# Same assay, conditions: library screen, ThS fluorescence net change over 16 h with p-tau
row,SMILES,ThS net change
1,Nc1ccc(/N=N/c2ccccc2)c(N)n1 [Phenazopyridine hydrochloride],12
2,Cc1cccc(N(C)C(=S)Oc2ccc3ccccc3c2)c1 [Tolnaftate],219
3,O=C1c2c(O)cccc2Cc2cccc(O)c21 [Anthralin],85
4,COc1ccc(-c2cc(=O)c3c(O)cc(O[C@@H]4O[C@H](CO[C@@H]5O[C@@H](C)[C@H](O)[C@@H](O)[C@H]5O)[C@@H](O)[C@H](O)[C@H]4O)cc3o2)cc1O [Diosmin],211
5,CC(NC(C)(C)C)C(=O)c1cccc(Cl)c1 (centres unmarked) [Bupropion hydrochloride],278
6,CCCCCCC[N+](CC)(CC)CCCCc1ccc(Cl)cc1.Cc1ccc(S(=O)(=O)[O-])cc1 [Clofilium tosylate],326

# Same assay, conditions: p-tau aggregation modulator screen of 1280-compound library; ThS fluorescence net change
row,SMILES,ThS net change
1,Clc1cccc(Cl)c1N=C1NCCN1 [Clonidine hydrochloride],330
2,Clc1cc(Cl)c(OCC#CI)cc1Cl [Haloprogin],374
3,CC(=O)Oc1cc(C(C)C)c(OCCN(C)C)cc1C.Cl [Moxisylyte hydrochoride],358
4,CC(=O)O[C@]1(C(C)=O)CC[C@H]2[C@@H]3C=C(C)C4=CC(=O)CC[C@]4(C)[C@H]3CC[C@@]21C [Megestrol acetate],343
5,Cc1c(N(C)CS(=O)(=O)[O-])c(=O)n(-c2ccccc2)n1C.[Na+] [Dipyrone],363
6,Nc1ccc(S(N)(=O)=O)cc1 [Sulfanilamide],355
7,Cl.N[C@@H]1CCCCN(c2c(F)cc3c(=O)c(C(=O)O)cn(C4CC4)c3c2Cl)C1 [Besifloxacin hydrochloride],360
8,Nc1nc2[nH]nnc2c(=O)[nH]1 [Azaguanine-8],377
9,O=C(NCCO[N+](=O)[O-])c1cccnc1 [Nicorandil],376
10,CCn1cc(C(=O)O)c(=O)c2cc(F)c(N3CCN(C)CC3)cc21 [Pefloxacine],352
11,C[C@H](O)C(=O)Nc1c(I)c(C(=O)NC(CO)CO)c(I)c(C(=O)NC(CO)CO)c1I [Iopamidol],369
12,NC[C@H]1O[C@H](O[C@H]2[C@H](O)[C@@H](O[C@H]3O[C@H](CO)[C@@H](O)[C@H](N)[C@H]3O)[C@H](N)C[C@@H]2N)[C@H](N)C[C@@H]1O [Tobramycin],360
13,CCOC(=O)C1=C[C@]2(CC)CCCN3CCc4c(n1c1ccccc41)[C@@H]32 [Vinpocetine],370

# Same assay, conditions: p-tau aggregation modulator screen of 1280-compound library; […]
row,SMILES,ThS net change
1,Br.COc1ccc2c(c1)[C@]13CCCC[C@@H]1[C@H](C2)N(C)CC3.O,372
2,COc1c(O[C@@H]2O[C@H](CO)[C@@H](O)[C@H](O)[C@H]2O)cc2c(c1OC)-c1ccc(SC)c(=O)cc1[C@@H](NC(C)=O)CC2 [Thiocolchicoside],370
3,CN1Cc2c(N)cccc2C(c2ccccc2)C1 (centres unmarked) [Nomifensine maleate],340
4,COc1cc2c(c(OC)c1OC)-c1ccc(OC)c(=O)cc1[C@@H](NC(C)=O)CC2 [Colchicine],336

# Same assay, conditions: p-tau aggregation modulator screen of the compound library, ThS fluorescence net change
row,SMILES,ThS net change
1,CNC(=O)c1c(I)c(C(=O)NCC(=O)Nc2c(I)c(C(=O)O)c(I)c(C(=O)NCCO)c2I)c(I)c(N(C)C(C)=O)c1I [Ioxaglic acid],442
2,COc1cc(-c2ccc(=O)[nH]n2)ccc1OC(F)F [Zardaverine],454
3,C[C@@H](O)[C@H]1C(=O)N2C(C(=O)O)=C(S[C@@H]3CN[C@H](C(=O)N(C)C)C3)[C@H](C)[C@H]12 [Meropenem],490
4,O=c1[nH]cc(F)c(=O)[nH]1 [5-fluorouracil],471
5,Cn1c(=O)c2c(ncn2CCO)n(C)c1=O [Etofylline],422
6,CC(=O)O[C@]1(C(C)=O)CC[C@H]2[C@@H]3C=C(Cl)C4=CC(=O)[C@@H]5C[C@@H]5[C@]4(C)[C@H]3CC[C@@]21C [Cyproterone acetate],432
7,CO/N=C(\C(=O)N[C@@H]1C(=O)N2C(C(=O)O)=C(C[N+]3(C)CCCC3)CS[C@H]12)c1csc(N)n1 [Cefepime hydrochloride],418
8,CC[C@H]1OC(=O)[C@H](C)[C@@H](O[C@H]2C[C@@](C)(OC)[C@@H](O)[C@H](C)O2)[C@H](C)[C@@H](O[C@@H]2O[C@H](C)C[C@H](N(C)C)[C@H]2O)[C@](C)(O)C[C@@H](C)[C@@H]2N[C@@H](COCCOC)O[C@H]([C@H]2C)[C@]1(C)O [Dirithromycin],418
9,Cn1c([N+](=O)[O-])cnc1COC(N)=O [Ronidazole],445
10,CCC[C@H](N[C@@H](C)C(=O)N1[C@H](C(=O)O)C[C@@H]2CCCC[C@@H]21)C(=O)OCC [Perindopril],426

# — article PMC7539012, “Hyperphosphorylated tau aggregation and cytotoxicity modulators screen identified prescription drugs linked to Alzheimer's disease and cognitive functions” (Scientific Reports, 2020)
